According to patent publication EP0384661A1, “Antialgal compositions comprising diphenylethers” (ROHM AND HAAS COMPANY, priority 1989, dated 1990):
In brackets after ≈: the same amount, converted by molar mass. Counter-ions that a name gives are not always drawn. Blank lines part the entries; values can stand above or below the compound they belong to.

Tests used:
Anabaena flos-aquae = test: MIC microtiter plate assay; type: cell-based; settings: Dolichospermum flos-aquae; growth/no-growth after 14 or 21 days, 25°C
Experimental: (§1) Efficacy studies were conducted on a variety of microorganisms with oxyfluorfen. Minimum Inhibitory Concentration (MIC) studies were conducted using microtiter plate assays. In this method, a wide range of concentrations was tested by preparing two-fold serial dilutions of the compound in 96-well plastic microtiter plates. All liquid media transfers were performed with calibrated single or multichannel digital pipetters. Stock solutions of compounds were prepared in appropriate solvents and dispensed to the growth medium. All subsequent dilutions in plates were made using the desired growth medium. The total volume of liquid in each well was 100 ul. The pure cultures used in this study were obtained from the Culture Collection of Algae at the University of Texas at Austin (UTEX). The mixed culture of algae was obtained from a cooling tower biofilm and maintained in liquid medium; microorganisms used as inocula were cultured in shaken liquid culture (50 ml of Bristol's medium, pH 7.0, 25°C); Journal of Phycology, 23s: 1-47, 1987) for one week or as needed to attain a desired cell mass. The cultures were then inoculated into the microtiter plates using a 96-prong multiple inoculator (5 µl inoculum); each well received a standard suspension of biomass (5% inoculum). Plates were incubated at 25°C under constant illumination (500 ft candles). The extent of growth was determined under low magnification with the aid of a microtiter plate reader. The growth in each cell was monitored periodically and growth/no-growth was recorded after 14 or 21 days. […] Following the evaluation procedure of Example 3, compounds according to the following structural formula, with X and Y substituents according to Table 4A, were evaluated with the results shown in Table 4B. [drawing 4]

[1] = tested on: Mixed Cooling Tower Culture; test: MIC microtiter plate assay; type: cell-based, mixed culture of algae; settings: growth/no-growth after 14 or 21 days, 25°C
Experimental: as §1

[2] = tested on: Selanastrum capricornutum; test: MIC microtiter plate assay; type: cell-based; settings: growth/no-growth after 14 or 21 days, 25°C
Experimental: (§2) Efficacy studies were conducted on a variety of microorganisms with oxyfluorfen. Minimum Inhibitory Concentration (MIC) studies were conducted using microtiter plate assays. In this method, a wide range of concentrations was tested by preparing two-fold serial dilutions of the compound in 96-well plastic microtiter plates. All liquid media transfers were performed with calibrated single or multichannel digital pipetters. Stock solutions of compounds were prepared in appropriate solvents and dispensed to the growth medium. All subsequent dilutions in plates were made using the desired growth medium. The total volume of liquid in each well was 100 ul. The pure cultures used in this study were obtained from the Culture Collection of Algae at the University of Texas at Austin (UTEX). The mixed culture of algae was obtained from a cooling tower biofilm and maintained in liquid medium; microorganisms used as inocula were cultured in shaken liquid culture (50 ml of Bristol's medium, pH 7.0, 25°C); Journal of Phycology, 23s: 1-47, 1987) for one week or as needed to attain a desired cell mass. The cultures were then inoculated into the microtiter plates using a 96-prong multiple inoculator (5 µl inoculum); each well received a standard suspension of biomass (5% inoculum). Plates were incubated at 25°C under constant illumination (500 ft candles). The extent of growth was determined under low magnification with the aid of a microtiter plate reader. The growth in each cell was monitored periodically and growth/no-growth was recorded after 14 or 21 days.

Scendesmus quadricaudra = test: MIC microtiter plate assay; type: cell-based; settings: growth/no-growth after 14 or 21 days, 25°C
Experimental: as §2

[3] = tested on: Phormidium luridum var. olivace; test: MIC microtiter plate assay; type: cell-based; settings: Drouetiella lurida; growth/no-growth after 14 or 21 days, 25°C
Experimental: as §2

Nostoc commune = test: MIC microtiter plate assay; type: cell-based; settings: growth/no-growth after 14 or 21 days, 25°C
Experimental: as §2

[4] = tested on: Synechococcus leopooliensis; test: MIC microtiter plate assay; type: cell-based; settings: growth/no-growth after 14 or 21 days, 25°C
Experimental: as §2

Clorococcum oleofaciens = test: MIC microtiter plate assay; type: cell-based; settings: growth/no-growth after 14 or 21 days, 25°C
Experimental: as §2

Chlorella pyrenoidosa = test: MIC microtiter plate assay; type: cell-based; settings: growth/no-growth after 14 or 21 days, 25°C
Experimental: as §2

[5] = tested on: mixed cooling tower culture; test: Simulated cooling tower water jar test, visual growth rating; type: cell-based; set-up: key to Visual Rating (7 Day Incubation): 0 = no growth; 1 = slight growth; 3 = moderate growth; 5 = abundant growth; settings: for Visual Rating (7 Day Incubation): synthetic cooling tower water pH 8.5
Experimental: A study was conducted with simulated cooling tower water to determine the effect of oxyfluorfen as an antialgal compound under simulated cooling tower conditions. Synthetic cooling tower water was made up with the following final concentrations (pH 8.5): Approximately 500 ml of the above solution was added to half-gallon jars and each jar was charged with given levels of oxyfluorfen (supplied as an emulsifiable concentrate); one jar contained no antialgal compound (control). Another set of jars was prepared with known levels of Isothiazolone A, a known antialgal compound for comparison purposes. Each jar was inoculated with 5 ml of a mixed cooling tower culture which was obtained from surface scrapings of industrial cooling towers; the mixed populations were maintained at room temperature in modified Allen's Media Formulation B described below in Part B. Each jar was inoculated two times per week to challenge the system. Jars were incubated under a 12 hour illumination cycle at room temperature (25°C) and were mixed manually (by swirling) three times per day. Visual observations were recorded daily using the rating scale described in Part C.

[6] = tested on: mixed population of algae and blue-green bacteria; test: Model cooling tower biofilm efficacy (chlorophyll a); type: cell-based; settings: one-per-week slug doses, biofilm harvested after four weeks
Experimental: Oxyfluorfen was tested as a water treatment antialgal compound in model cooling towers which simulate pertinent process variables of industrial cooling towers. Compounds were dosed on a regular basis and the efficacy of the treatments was determined by measuring a parameter of algal or cyanobacterial biomass; specific operating parameters are described below.
The basic design consisted of an acrylic plastic tower placed within a 17-liter polycarbonate basin. Each model contained a temperature control system, acid (H₂SO₄) or base (KOH) feed for pH control, air flow regulators, water recirculation system, and a makeup water supply. Two sets of five towers were placed in vented enclosures.
The basin contained an overflow port positioned to provide a constant 8-liter working volume in the system. […]
Illumination was provided by cool white and grow-lux fluorescent lights operated on a 19 hours per day cycle. The heating system for each unit consisted of an immersion heating element, temperature controller, two thermistors, and a direct readout thermometer. […]
The model cooling towers were designed and operated to maintain a constant half-life in each unit. […] The rate of removal of a given compound from the system was thereby determined by the concentration of the material in the bulkwater and the rate of blowdown from the tower. […]

[7] = tested on: mixed cooling tower algae; test: Paint algicide test (latex paint on tongue depressors); type: cell-based; set-up: key to 7 Days Algal Growth / 10 Days Algal Growth / 14 Days Algal Growth: 0 = No Algal Growth; 5 = Moderate Algal Growth; 10 = Heavy Algal Growth
Experimental: Solutions of oxyfluorfen were prepared as follows in 1-ounce (28.3g) glass vials. Oxyfluorfen concentrate (0.17 g) was added to 19.83 g latex paint formulation (described below) to give 2-lb oxyfluorfen/100 gal. (2 kg/833 l) paint solution; in a similar manner, 0.08 g oxyfluorfen concentrate was added to 19.92 g latex paint formulation to give 1-lb/100-gal (1 kg/833 l) solution. Oxyfluorfen concentrate (1.0 g) was added to 19.0 g mixture of 2 parts xylene/1 part cyclohexanone; 0.17 g of the resultant solution was added to 19.83 g latex paint formulation to give 0.1-lb/100-gal oxyfluorfen solution; in a similar manner, 0.016 g of xylene/cyclohexanone solution was added to 19.984 g latex paint formulation to give 0.01-lb/100-gal solution.
The solutions were stirred manually with Teflon spatulas and each was applied to two tongue depressors using #7 paint brushes. Two control tongue depressors were similarly prepared except without oxyfluorfen in the latex paint formulation. The tongue depressors were allowed to dry for one week and then inoculated with four 50 ul drops of mixed cooling tower algae (obtained from surface scrapings of industrial cooling towers and maintained in a modified Allen's media formulation, described in EXAMPLE 1).
The tongue depressors were placed on plastic stages within large petri dishes and the area around the stages was filled with deionized water. The petri dishes were covered and placed in a Precision (Model 816) low temperature (25C) illuminated incubator for one week; at this point the tongue depressors were re-inoculated with one ml of the mixed cooling tower algae and returned to the incubator. The tongue depressors where then checked daily for algal growth (visual); results are found in Part C.
Oxyfluorfen was added as a 24% emulsifiable concentrate in mixed organic solvents. The following formulation is a typical paint blend for testing of stabilization against algal activity. Texanol¿ is trimethyl-1,3-pentanediol monoisobutyrate supplied by Eastman Chemical; Rhoplex AC-64 is a commercially available latex of a copolymer of butyl acrylate and methyl methacrylate. This paint formulation has a pH of 9.4 and an initial viscosity of […] (Krebs units).

[8] = tested on: 10 differents types of algae; settings: all levels tested; 10 types of algae; cited from earlier work
[9] = 10 ppm (0.01 lb/100-gal) in latex paint
[10] = 100 ppm (0.10 lb/100-gal) in latex paint
[11] = 1000 ppm (1.0 lb/100-gal) in latex paint
[12] = 2000 ppm (2.0 lb/100-gal) in latex paint

Structure (SMILES): Oc1cccc(Oc2ccc(C(F)(F)F)cc2Cl)c1 [4A comparative]
MIC (Anabaena flos-aquae): 3.1 µg/mL (≈ 10.7 µM)
MIC [1]: 1.6 µg/mL (≈ 5.54 µM)

Structure (SMILES): O=C(O)c1cc(Oc2ccc(C(F)(F)F)cc2Cl)ccc1[N+](=O)[O-] [4E comparative]
MIC (Anabaena flos-aquae): > 50 µg/mL
MIC [1]: 12.5 µg/mL (≈ 34.6 µM)

Structure (SMILES): CCOc1cc(Oc2ccc(C(F)(F)F)cc2Cl)ccc1[N+](=O)[O-] [Oxyfluorfen, oxyfluorfen]
MIC [2]: 0.008 µg/mL (≈ 0.0221 µM)
MIC (Scendesmus quadricaudra): < 0.002 µg/mL
MIC [3]: > 500 µg/mL
MIC (Nostoc commune): > 500 µg/mL
MIC [4]: > 500 µg/mL
MIC (Clorococcum oleofaciens): > 0.125 µg/mL
MIC (Chlorella pyrenoidosa): 0.125 ppm
MIC (Anabaena flos-aquae): > 500 µg/mL
MIC [1]: < 0.004 µg/mL
Visual Rating (7 Day Incubation) ([5]; 0.005 ppm): 0
Visual Rating (7 Day Incubation) ([5]; 0.010 ppm): 0
Visual Rating (7 Day Incubation) ([5]; 0.025 ppm): 0
Visual Rating (7 Day Incubation) ([5]; 0.050 ppm): 0
Visual Rating (7 Day Incubation) ([5]; 0.100 ppm): 0
Visual Rating (7 Day Incubation) ([5]; 0.250 ppm): 0
Visual Rating (7 Day Incubation) ([5]; 0.500 ppm): 0
levels effective for controlling cooling tower algae ([5]; simulated water chemistry conditions): ≤ 5 ppb
Chlorophyll a in Biofilm ([6]; 0.05 ppm): 3.27 ug/cm2
activity at 0.05 ppm ([6]; 672 h, read-out: Chlorophyll a in Biofilm % of control): 24%
7 Days Algal Growth [7, 9]: 0
10 Days Algal Growth [7, 9]: 2
14 Days Algal Growth [7, 9]: 3
7 Days Algal Growth [7, 10]: 0
10 Days Algal Growth [7, 10]: 1
14 Days Algal Growth [7, 10]: 1
7 Days Algal Growth [7, 11]: 0
10 Days Algal Growth [7, 11]: 0
14 Days Algal Growth [7, 11]: 0
7 Days Algal Growth [7, 12]: 0
10 Days Algal Growth [7, 12]: 0
14 Days Algal Growth [7, 12]: 0
levels that significantly reduced the rate of algal growth ([7]; for up to 14 days, in latex paint): ≤ 10 ppm
levels that totally inhibited algal growth ([7]; in latex paint): above 100 ppm

Structure (SMILES): O=C(O)c1cc(Oc2ccc(C(F)(F)F)cc2Cl)ccc1[N+](=O)[O-] [acifluorfen, 2-chloro-4-trifluoromethylphenyl-3′-carboxy-4′-nitrophenylether, sodium salt]
effectiveness on algae [8]: ineffective at all levels tested

Continued, values first:

MIC (Anabaena flos-aquae): 16 µg/mL (≈ 48.4 µM)
MIC [1]: 8 µg/mL (≈ 24.2 µM)
Structure (SMILES): CC(=O)Oc1cccc(Oc2ccc(C(F)(F)F)cc2Cl)c1 [4B comparative]

MIC (Anabaena flos-aquae): 12.5 µg/mL (≈ 33.3 µM)
MIC [1]: 0.25 µg/mL (≈ 0.665 µM)
Structure (SMILES): CC(=O)Oc1cc(Oc2ccc(C(F)(F)F)cc2Cl)ccc1[N+](=O)[O-] [4C comparative]

MIC (Anabaena flos-aquae): 12.5 µg/mL (≈ 37.5 µM)
MIC [1]: 0.06 µg/mL (≈ 0.18 µM)
Structure (SMILES): O=[N+]([O-])c1ccc(Oc2ccc(C(F)(F)F)cc2Cl)cc1O [4D comparative]

MIC [1]: 1 µg/mL (≈ 2.23 µM)
Structure (SMILES): CCOC(=O)COC(=O)c1cc(Oc2ccc(C(F)(F)F)cc2Cl)ccc1[N+](=O)[O-] [4F comparative]

MIC [1]: 0.25 µg/mL (≈ 0.576 µM)
Structure (SMILES): CCOC(=O)C(C)Oc1cc(Oc2ccc(C(F)(F)F)cc2Cl)ccc1[N+](=O)[O-] (stereo not shown) [Compound 4G]
